Experimental data taken from PMC11643962, “Exploring 4,7-Disubstituted Pyrimido[4,5-d]pyrimidines as Antiviral and Anticancer Agents” (Molecules, 2024).
Where two headings read alike, the source gives them in different places.

Assays:
[1] = tested on: HL-60 (acute myeloid leukemia); test: MTS proliferation assay, HL-60; settings: Homo sapiens, HL-60, 72 h, read-out: Anti-Proliferative Activity (IC50) HL-60
[2] = tested on: K-562 (chronic myeloid leukemia); test: MTS proliferation assay, K-562; settings: Homo sapiens, K562, 72 h, read-out: Anti-Proliferative Activity (IC50) K-562
[3] = tested on: Z-138 (non-Hodgkin lymphoma); test: MTS proliferation assay, Z-138; settings: Homo sapiens, Z-138, 72 h, read-out: Anti-Proliferative Activity (IC50) Z-138
[4] = tested on: LN-229 (glioblastoma); test: MTS proliferation assay, LN-229; settings: Homo sapiens, LN-229, 72 h, read-out: Anti-Proliferative Activity (IC50) LN-229
[5] = tested on: DND-41 (acute lymphoblastic leukemia); test: MTS proliferation assay, DND-41; settings: Homo sapiens, DND41, 72 h, read-out: Anti-Proliferative Activity (IC50) DND-41
[6] = tested on: Capan-1 (pancreatic adenocarcinoma); test: MTS proliferation assay, Capan-1; settings: Homo sapiens, CAPAN-1, 72 h, read-out: Anti-Proliferative Activity (IC50) Capan-1
[7] = tested on: HCT-116 (colorectal carcinoma); test: MTS proliferation assay, HCT-116; settings: Homo sapiens, HCT-116, 72 h, read-out: Anti-Proliferative Activity (IC50) HCT-116
[8] = tested on: NCI-H460 (lung carcinoma); test: MTS proliferation assay, NCI-H460; settings: Homo sapiens, NCI-H460, 72 h, read-out: Anti-Proliferative Activity (IC50) NCI-H460
[9] = tested on: HCoV-229E; test: Antiviral CPE reduction assay, HCoV-229E in HEL299 cells; format: cell-based, human coronavirus 229E; settings: Human coronavirus 229E, HEL 299, MTS, mean ± SD of two or three independent experiments
[10] = tested on: HCoV-OC43; test: Antiviral CPE reduction assay, HCoV-OC43 in HEL299 cells; format: cell-based, human coronavirus OC43; settings: Betacoronavirus 1, OC43, HEL 299, MTS, mean ± SD of two or three independent experiments
[11] = tested on: HCoV-NL63; test: Antiviral CPE reduction assay, HCoV-NL63 in Hep3B cells; format: cell-based, human coronavirus NL63; settings: Human coronavirus NL63, MTS, mean ± SD of two or three independent experiments
[12] = tested on: influenza A/H1N1 (A/Ned/378/05); test: Antiviral CPE reduction assay, influenza A/H1N1 in MDCK cells; format: cell-based, influenza A virus; settings: Influenza A virus, read-out: Antiviral Activity (EC50) Influenza H1N1
[13] = tested on: influenza A/H3N2 (A/HK/7/87); test: Antiviral CPE reduction assay, influenza A/H3N2 in MDCK cells; format: cell-based, influenza A virus; settings: Influenza A virus, read-out: Antiviral Activity (EC50) Influenza H3N2
[14] = tested on: influenza B (B/Ned/537/05); test: Antiviral CPE reduction assay, influenza B in MDCK cells; format: cell-based, influenza B virus; settings: Influenza B virus, MDCK, read-out: Antiviral Activity (EC50) Influenza B
[15] = tested on: respiratory syncytial virus A (RSV A Long); test: Antiviral CPE reduction assay, RSV A Long in Hep2 cells; format: cell-based; settings: human respiratory syncytial virus
[16] = tested on: herpes simplex virus-1 (HSV-1 KOS); test: Antiviral CPE reduction assay, HSV-1 KOS in HEL299 cells; format: cell-based; settings: Human alphaherpesvirus 1, HEL 299, MTS, mean ± SD, no unit printed on the supplement page (Table 2 of the same screen is in µM)
[17] = tested on: yellow fever virus (YFV 17D); test: microbe, parasite or virus in culture; format: cell-based; settings: Yellow fever virus, Vero C1008, read-out: Antiviral activity (EC50) YFV 17D
[18] = tested on: Zika virus (ZikV mr766); test: Antiviral CPE reduction assay, Zika virus mr766 in VeroE6 cells; format: cell-based; settings: Zika virus, Vero C1008, MTS, mean ± SD, no unit printed on the supplement page (Table 2 of the same screen is in µM)
[19] = in vitro; settings: dog
[20] = in vitro; settings: African green monkey
[21] = in vitro; settings: human
[22] = HEp-2, read-out: Antiviral Activity (EC50) RSV A Long
[23] = H1N1, MDCK cells, CPE reduction, MTS, mean ± SD of two or three independent experiments
[24] = H3N2, MDCK cells, CPE reduction, MTS, mean ± SD of two or three independent experiments

| SMILES | IC50 [1] [µM] | IC50 [2] [µM] | IC50 [3] [µM] | IC50 [4] [µM] | IC50 [5] [µM] | IC50 [6] [µM] | IC50 [7] [µM] | IC50 [8] [µM] | EC50 [9] [µM] | EC50 [10] [µM] | EC50 [11] [µM] | EC50 ([12]; H1N1, MDCK) [µM] | EC50 ([13]; H3N2, MDCK) [µM] | EC50 [14] [µM] | EC50 [15, 22] [µM] | EC50 [17] [µM] | EC50 [18] [µM] | CC50 [19] [µM] | CC50 [20] [µM] | EC50 [12, 23] [µM] | further results |
| --- | --- | --- | --- | --- | --- | --- | --- | --- | --- | --- | --- | --- | --- | --- | --- | --- | --- | --- | --- | --- | --- |
| COc1cc([C@@H]2c3cc4c(cc3[C@@H](O[C@@H]3O[C@@H]5CO[C@@H](C)O[C@H]5[C@H](O)[C@H]3O)[C@H]3COC(=O)[C@H]23)OCO4)cc(OC)c1O [Etoposide, etoposide, reference compound] | 0.2 ± 0.01 | 6 ± 2 | 0.08 ± 0.03 | 3 ± 0.2 | 0.1 ± 0.02 | 0.1 ± 0.03 | 1.4 ± 0.09 | 2.2 ± 0.8 | – | – | – | – | – | – | – | – | – | – | – | – | – |
| C#Cc1cccc(Nc2ncnc3cc(OCCOC)c(OCCO)cc23)c1 [OSI-420, reference compound] | > 100 | > 100 | > 100 | > 100 | > 100 | 41.7 ± 3.6 | > 100 | > 100 | > 100 | > 100 | > 100 | > 100 | > 100 | > 100 | > 100 | > 100 | > 100 | > 100 | > 100 | – | EC50 [16]: > 100 µM |
| CCC(CC)COC(=O)[C@H](C)N[P@](=O)(OC[C@H]1O[C@@](C#N)(c2ccc3c(N)ncnn23)[C@H](O)[C@@H]1O)Oc1ccccc1 [Remdesivir, remdesivir, reference compound] | – | – | – | – | – | – | – | – | 0.05 ± 0.04 | 0.14 ± 0.007 | 0.14 ± 0.04 | – | – | – | – | – | – | – | – | – | EC50 ([15]; HEp-2, Hep2 cells, CPE reduction, MTS, mean ± SD of two or three independent experiments, read-out: Antiviral Activity (EC50) RSV A Long): 0.008 ± 0.001 µM; CC50 [21]: > 10 µM |
| NC(=O)c1ncn([C@@H]2O[C@H](CO)[C@@H](O)[C@H]2O)n1 [Ribavirin, ribavirin, reference compound] | – | – | – | – | – | – | – | – | 38.9 ± 1.7 | 100 ± 19 | 39.9 ± 7.1 | 9.6 ± 1 | 7.2 ± 1.6 | 7.4 ± 0.8 | 35.9 ± 1.3 | 24.5 | 104 | > 250 | > 250 | – | – |
| CC(N)C12CC3CC(CC(C3)C1)C2 (stereo not shown) [Rimantadine, rimantadine, reference compound] | – | – | – | – | – | – | – | – | – | – | – | – | – | > 100 | – | – | – | > 100 | – | 1.7 ± 0.5 | EC50 [13, 24]: 0.6 ± 0.07 µM |
| CC(=O)N[C@H]1[C@H]([C@H](O)[C@H](O)CO)OC(C(=O)O)=C[C@@H]1N=C(N)N [Zanamivir, zanamivir, reference compound] | – | – | – | – | – | – | – | – | – | – | – | – | – | 0.4 ± 0.01 | – | – | – | > 100 | – | 0.6 ± 0.3 | EC50 [13, 24]: 3 ± 0.2 µM |
